Test results taken from patent US8003595B2, “Amino acid sequences facilitating penetration of a substance of interest into cells and/or cell nuclei” (Cellectis, priority 2000, dated 2011).
pKd: −log10 of the molar value. Read-outs that look alike come from different tables or passages of the source. Where no end group is shown, it is not given here.

Experiments:
[1] = system: 3T3; test: Internalization of covalent peptide-peroxidase conjugates; assay type: cell-based, mouse; details: 2 hours
Procedure, shortened: (§1)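 Peptides coupled via C-terminal cysteine to maleimide-activated peroxidase, free peptide removed by ultrafiltration. Cells incubated 2 h with 0.2 μg/ml conjugate; peroxidase dosed in lysates, expressed as pg/10^3 cells.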

[2] = system: H1299 cells; test: as above; assay type: cell-based, human; details: H1299, 0.2 μg/ml conjugate, 2 hours
Procedure, shortened: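 Peptides coupled via C-terminal cysteine to maleimide-activated peroxidase; uncoupled peptide removed by ultrafiltration. H1299 cells incubated 2 h with increasing conjugate concentrations, washed, lysed; internalized peptide quantified from lysate peroxidase against a conjugate standard curve, as pg/10^3 cells.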

[3] = system: H1299 cells; test: Inhibition of peptide-peroxidase internalization by drugs or 4° C.; assay type: cell-based, human; details: peptide-peroxidase 0.2 μg/ml, 2 hours
Procedure: To understand the biological mechanisms whereby the peptides penetrate into the cells and their compartmentalization, experiments are done with drugs whose action on certain cell compartments is specific. The peptide-peroxidases were incubated with H1299 cells at a concentration of 0.2 μg/ml for 2 hours in the presence, or not, of a drug. The cells were lysed, and the peroxidase dosed in the cellular lysate.

[4] = ELISA fixation of biotinylated peptides on sensitized plates; assay type: binding; details: read-out: avidity (Kd), quantity of peptides necessary to obtain 50% fixation, Chondroitin A; Table 5
[5] = as above; assay type: binding; details: read-out: avidity (Kd), quantity of peptides necessary to obtain 50% fixation, Chondroitin B; Table 5
[6] = system: gram-positive and gram-negative bacterial strains; test: Antibacterial activity of cationic peptides, summary over strains; assay type: cell-based; details: summary of Table 29
Procedure: The gram-positive bacterial strains are: Enterococcus faecalis (ATCC 29212), and Staphylococcus aureus (ATCC 25923) and the gram-negative strains are: Escherichia coli (ATCC 25922), Pseudomonas aeruginosa (ATCC 27853) and Salmonella typhimurim (clinical isolate), Salmonella typhiTy2 (WHO). The bacteria are cultured with shaking all night at 37° C., then recultured at a dilution of 1:50 in some fresh Luria-Bertani (LB) medium for 2 hours. The bacterial concentration is adjusted to […], and 50 μl is distributed in 96-well plates with an equal volume of peptides diluted half and half (256-0.5 μg/ml) in LB medium. […] To determine the minimum bactericide concentration, 10 μl from each well is spread on gelose plates in LB medium.
However, when peptide HPB13 (SEQ ID NO: 38) is coupled with peptide SEQ ID NO: 24, it enhances its activity by a factor of 50 to 100 (peptide SEQ ID NO: 45). […] None these peptides are active on gram-positive bacteria.

[7] = system: HeLa; test: Internalization of covalent peptide-peroxidase conjugates; assay type: cell-based, human; details: 2 hours
Procedure, shortened: as §1

[8] = ELISA fixation of biotinylated peptides on sensitized plates; assay type: binding; details: read-out: avidity (Kd), quantity of peptides necessary to obtain 50% fixation, Chondroitin C; Table 5
[9] = system: Caco-2 cell monolayers; test: Integrity of the Caco-2 barrier model in presence of HBP peptides; details: Table 30; 30 μg/ml, 8 hours in HBSS; three inserts; listed as HBP7
Procedure: Caco-2 cells were seeded at a density of 160000 cells/cm^2 on a polyethylene terephtalate microporous membranes, previously coated with bovine dermal collagen, in a synthetic serum-free medium (Basal Defined Medium, BDM). Culture medium was changed three times a week and cells were maintained at 37° C. in a an atmosphere of 5% CO2 for 18 days. As a negative control to check the integrity of the Caco-2 barrier, 10^6 dpm/ml D-[^14C]-mannitol was used. […] Other controls included D-[^14C]-mannitol/L-[^3H]-Proline+HBP7 30 μg/ml and D-[^14C]-mannitol/L-[^3H]-proline+HBP10 30 μg/ml.
Trans-epithelial transport experiments were carried out. The trans-epithelial electrical resistance (TEER) was measured to check the integrity of the Caco-2 cell monolayers. The cell monolayers were preincubated in Hanks' balanced salt solution (HBSS, 5 mM glucose, supplemented with 10 mM Hepes) for 8 hours at 37° C. At 1, 2, 4 and 8 hours, 100 μl of medium was collected from the lower compartment and replaced by fresh HBSS. At the end of the experiment (8 hours), the cell monolayers were washed three times with PBS and TEER was measured.

[10] = ELISA fixation of biotinylated peptides on sensitized plates; assay type: binding; details: read-out: avidity (Kd), quantity of peptides necessary to obtain 50% fixation, Heparin; Table 5
Procedure: The capacity of peptides SEQ ID NO: 1 to 21 to attach themselves to DNA and heparin is evaluated on ELISA plates sensitized with DNA or heparin. Dilutions of biotinylated peptides are deposited on the plates and their fixation is shown using streptavidin conjugated with peroxidase. […] The avidity of each of the peptides for DNA or heparin is evaluated by the quantity (×10^−6 M) of peptides necessary to obtain 50% fixation.

For GKRKKKGKLGKKRDP [SEQ ID NO: 30], the “Internalization of Peptide-peroxidase” value ([1]; Table 9, 0.2 μg/ml conjugate) was 48.8 pg/10^3 cells, the Internalization of Peptide-peroxidase ([1]; Table 9B, 0.2 μg/ml conjugate) was 44.2 pg/10^3 cells and the “Internalization of Peptide-peroxidase” value ([2]; Table 9) was 22.5 pg/10^3 cells. For the same sequence, the Internalization of Peptide-peroxidase ([2]; Table 9B) was 63.3 pg/10^3 cells, the “percentage inhibition of peptide internalization” value (from here on “percentage inhibition”) ([3]; Ammonium chloride (50 mM)) was 70% and the “percentage inhibition” value ([3]; Chloroquin (100 μM)) was 79%. For the same sequence, the “percentage inhibition” value ([3]; Genistein (200 μM)) was 68%, the “percentage inhibition” value ([3]; Sodium chloride (80 mM)) was 69% and the “percentage inhibition” value ([3]; Temperature (4° C.)) was 100%. The pKd [4] was 7.11, the pKd [5] was 7.24 and the “bactericide / anti-microbial activity” value [6] was “no anti-microbial activity”. For the same sequence, the “Internalization of Peptide-peroxidase” value ([7]; Table 9, 0.2 μg/ml conjugate) was 11 pg/10^3 cells, the Internalization of Peptide-peroxidase ([7]; Table 9B, 0.2 μg/ml conjugate) was 3.6 pg/10^3 cells and the pKd [8] was 7.72. The TEER after incubation [9] was 145 Ω · cm^2 and the pKd [10] was 7.27.
